Common to all, as to type: cell-based
One assay relates to PBMCs. In words: CTG (CellTiter-Glo) viability assay in PBMCs. The conditions noted are these: LPS and nigericin stimulated. The procedure: (§1) Human peripheral blood mononuclear cells (PBMCs), consisting of lymphocytes (T, B and NK cells), monocytes and dendritic cells, were freshly isolated from human peripheral blood from healthy donors. Cells were obtained through an IRB approved donor program by iXCells Biotechnologies where all the donors were tested for bacterial and viral infections. Cells were purified from peripheral blood using ficoll gradient centrifugation.
(§2) Fresh or cryopreserved PMBCs were seeded in V-bottom 96-well plate at 0.5-1×10^5 cells per well and incubated overnight at 37° C. with 5% CO2 in RPMI 1640 medium with GlutaMAX supplement, 4.5 g/L D-glucose, 10% Fetal Bovine Serum (FBS), […] Sodium Pyruvate, 1% Penicillin/Streptomycin, 10 mM HEPES and 0.05 mM of β-mercaptoethanol. Freshly isolated or cryopreserved KCs cells were seeded in flat-bottom 96-well plates at 0.6-1.5×10^5 cells/well and incubated overnight at 37° C. 5% CO2 in RPMI 1640 Medium with GlutaMAX supplement, FBS, 1% Penicillin/Streptomycin and 10 mM HEPES. The following day, the cells were primed with 100 ng/mL of lipopolysaccharides (LPS; Sigma Aldrich) in FBS-free RPMI 1640 for 3 h. After the priming step, the media was removed and PBMCs were pre-incubated with serial concentrations of test compounds (0.00017-10 uM) or vehicle (DMSO) for 30 min in FBS-free media prior to addition of the NLRP3 activator. Cells were then stimulated with 10 uM Nigericin (Sigma Aldrich; InvivoGen) for 1.5 h. Plates were centrifuged at 1,500 rpm for 3 minutes to pellet cells and supernatant was transferred into new plates for subsequent experiments.
Viability of compound treated cells was measured using CellTiter-Glo® assay (Promega, Madison, Wis.) that measures the ATP content of cells which is proportional to the number of live cells within a well. This is a counter-screen to establish that the reduction of IL-1β levels in LPS and nigericin stimulated and compound treated cells is not due to cytotoxicity, but rather through the inhibition of the inflammasome pathway. Compounds inhibiting NRLP3 inflammasome activation ultimately increase the viability of LPS and nigericin stimulated cells by blocking NLRP3 mediated pyroptosis that would otherwise lead to cell lysis.
For orientation: Cellular ATP, detected with luciferase, serves as a proxy for viable cell number.

Assay [1] addresses T1, NLRP3 inflammasome (Homo sapiens, UniProt Q96P20). In words: NLRP3 inflammasome activation assay in PBMCs, IL-1β release (ELISA / HTRF). On the set-up: were freshly isolated from human peripheral blood from healthy donors; StemCells Technologies; host or cells: primary human PBMCs, LPS-primed, nigericin-stimulated. The conditions noted are these: LPS primed. How it is done: Some of the following assays were used to determine the inhibitory activity of the compounds on the NLRP3 inflammasome using a common inflammasome activation stimuli—nigericin.
as §1, §2
For ELISA assays cells were seeded into 96-well plates. Post study, supernatants were removed and the levels of mature IL-1β, IL18 and TNFα (Quantikine ELISA, R&D systems) were measured in cell conditioned media by ELISA according to manufacturer's instructions.
Human frozen PBMCs were purchased from StemCells Technologies. Cells were rapidly thawed in 37° C. water bath and resuspended in fresh assay media consisting of RPMI 1640 Medium containing 1% sodium pyruvate, 10 mM HEPES, 2.5 g/L glucose and 55 μM 2-Mercaptoethanol. Cell density was adjusted to 8.1×10^5 cells/mL. Cells were primed by adding lipopolysaccharide (Invivogen Ultrapure lipopolysaccharide from E. coli, tlrl-3pelps) at a final concentration of 100 ng/mL in cell suspension. 37 μL of cell suspension with LPS was seeded per well of a 384 well plate and incubated for 3 hours at 37° C. and 5% CO2. After priming, PBMCs were preincubated with serially diluted test compounds with starting concentration of 40 μM followed by 2-fold dilution for a 20-point curve or vehicle (DMSO) for 30 min in assay media at 37° C. and 5% CO2. Cells were then stimulated with 10 μM nigericin (Invivogen, tlrl-nig-5) for 90 min at 37° C. and 5% CO2 to activate NLRP3 dependent inflammasome pathway and IL-1β release in cell culture supernatant. Cells were centrifuged at 1200 RPM for 1 min and 40 μL of supernatant was transferred into fresh plates and stored at −80° C. until IL-1β analysis.
16 μL of supernatant was added to white 384 well HTRF plates, followed by addition of 4 μL of HTRF cocktail in each well. Plates were quickly centrifuged, sealed and incubated overnight at room temperature. Next day, HTRF signal was read on a Pherastar and ratio of 665/620 was calculated based on manufacturer's protocol to obtain concentration of IL-1β in cell culture supernatant.
For orientation: In an ELISA, binding on a coated surface is turned into a signal by an enzyme label.

Assay [2] concerns the target T1, NLRP3 inflammasome. In words: THP-1 ASC-GFP speck assay. Set-up: host or cells: THP-1 ASC-GFP cells, PMA-differentiated, LPS-primed, nigericin-stimulated. The conditions noted are these: THP-1 ASC-GFP cells, PMA differentiated, LPS primed, 10 μM nigericin; read-out: THP1 ASC Speck IC50. The procedure, abridged: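 PMA-differentiated (500 ng/ml, overnight) THP-1 ASC-GFP cells primed with 1 μg/mL LPS for 3 h, preincubated 30 min with compound (top 40 μM, 2-fold, 20 points), then stimulated with 10 μM nigericin for 90 min at 37 °C. After fixation and Hoechst staining, imaging gave the percentage of cells bearing a GFP ASC speck.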

Where [3] appears, read: human PBMCs, read-out: PBMC CTG IC50.
The mark [4] stands for this setting: 10 μM nigericin, read-out: PBMC IL-1β IC50.
The mark [5] stands for this setting: 10 uM nigericin, read-out: PBMC IL-1 β IC50.

From patent US12234245B2, “Sulfonimidamide compounds as inhibitors of interleukin-1 activity” (Genentech, Inc., priority 2018, dated 2025) come the findings set out here.

Read-outs that look alike come from different tables or passages of the source.

T1 sequence (Q96P20 whole entry): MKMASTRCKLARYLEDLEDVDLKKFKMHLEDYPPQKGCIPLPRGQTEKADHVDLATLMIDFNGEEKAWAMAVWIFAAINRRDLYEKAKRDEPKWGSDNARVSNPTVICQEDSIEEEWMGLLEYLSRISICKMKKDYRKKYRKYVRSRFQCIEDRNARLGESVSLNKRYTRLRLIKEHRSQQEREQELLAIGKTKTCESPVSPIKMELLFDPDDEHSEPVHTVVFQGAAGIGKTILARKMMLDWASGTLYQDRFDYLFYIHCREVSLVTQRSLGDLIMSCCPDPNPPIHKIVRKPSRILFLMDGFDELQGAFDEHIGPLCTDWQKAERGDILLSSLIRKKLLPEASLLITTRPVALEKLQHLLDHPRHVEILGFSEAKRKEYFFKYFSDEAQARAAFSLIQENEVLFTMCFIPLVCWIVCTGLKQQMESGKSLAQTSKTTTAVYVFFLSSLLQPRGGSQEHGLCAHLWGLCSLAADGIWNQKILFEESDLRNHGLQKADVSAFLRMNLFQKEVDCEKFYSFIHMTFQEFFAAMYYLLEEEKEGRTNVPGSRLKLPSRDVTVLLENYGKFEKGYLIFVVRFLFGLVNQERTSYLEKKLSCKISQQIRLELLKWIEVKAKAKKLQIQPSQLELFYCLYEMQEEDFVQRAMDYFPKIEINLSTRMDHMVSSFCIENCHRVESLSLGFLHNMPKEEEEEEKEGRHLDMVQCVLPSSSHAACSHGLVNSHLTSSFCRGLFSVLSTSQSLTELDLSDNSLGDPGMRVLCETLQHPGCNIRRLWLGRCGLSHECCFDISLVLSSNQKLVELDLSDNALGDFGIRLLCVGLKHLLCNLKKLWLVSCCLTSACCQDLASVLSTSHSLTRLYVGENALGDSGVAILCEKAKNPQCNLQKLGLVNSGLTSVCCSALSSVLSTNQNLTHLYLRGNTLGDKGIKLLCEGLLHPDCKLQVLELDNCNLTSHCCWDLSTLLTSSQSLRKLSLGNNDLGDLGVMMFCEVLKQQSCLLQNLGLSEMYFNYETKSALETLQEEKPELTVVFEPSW

The term IC50 denotes the concentration that gives 50% inhibition. For `COC1CN(C2COc3c(S(N)(=O)=NC(=O)Nc4c5c(cc6c4CCC6)CCC5)cnn3C2)C1` (single isomer, unassigned) [Example 38], the IC50 in the assay with PBMCs (setting [3]) amounted to 1.16 µM; on NLRP3 inflammasome [1] (setting [4]), 2.03 µM; on NLRP3 inflammasome [2] it was 1.5 µM.
Regarding `NS(=O)(=NC(=O)Nc1c2c(c(C(=O)O)c3c1CCC3)CCC2)c1cnn2c1OCCC2` (racemic) [Example 37, 8-(3-(6,7-dihydro-5H-pyrazolo[5,1-b][1,3]oxazine-3-sulfonimidoyl)ureido)-1,2,3,5,6,7-hexahydro-s-indacene-4-carboxylic acid], the IC50 was above 10 µM in the assay with PBMCs (Homo sapiens, PBMC); above 10 µM at NLRP3 inflammasome [1] (setting [4]); above 20 µM on NLRP3 inflammasome [2].
Turning to `CC(C)c1cc(F)cc(C(C)C)c1NC(=O)N=S(N)(=O)c1cnn2c1OCCC2` (single isomer, unassigned) [Example 7], the IC50 with PBMCs (Homo sapiens, PBMC) is 0.003 µM; on NLRP3 inflammasome [1] (setting [4]), 0.29 µM.
On to `Cn1cc(S(N)(=O)=NC(=O)Nc2c3c(cc4c2CCC4)CCC3)cn1` (stereo not drawn), for which the IC50 in the assay with PBMCs (Homo sapiens, PBMC) was in the range of 0.1 to 1 µM; on NLRP3 inflammasome [1] (setting [5]), 0.1 to 1 µM.
Turning to `NS(=O)(=NC(=O)Nc1c2c(cc3c1CCC3)CCC2)c1cnn2c1OCC(NCCF)C2` (single isomer, unassigned) [Example 36], the IC50 in the assay on PBMCs (setting [3]) worked out at 0.17 µM; at NLRP3 inflammasome [1] (setting [4]) it was 0.05 µM; at NLRP3 inflammasome [2], 0.066 µM.
For the compound `NS(=O)(=NC(=O)Nc1c2c(cc3c1CCC3)CCC2)c1cnn2c1OCC(NCCF)C2` (single isomer, unassigned) [Example 35], the IC50 in the assay on PBMCs (Homo sapiens, PBMC) was 0.25 µM; on NLRP3 inflammasome [1] (setting [4]), 0.18 µM.
With `CNC1COc2c(S(N)(=O)=NC(=O)Nc3c4c(c(F)c5c3CCC5)CCC4)cnn2C1` (single isomer, unassigned) [Example 40], the IC50 amounted to 0.003 µM in the assay with PBMCs (setting [3]), 0.0049 µM on NLRP3 inflammasome [1] (setting [4]) and 0.0088 µM at NLRP3 inflammasome [2].
As to `NS(=O)(=NC(=O)Nc1c2c(c(F)c3c1CCC3)CCC2)c1cnn2c1OCCC2` (racemic) [Example 4, N′-((8-fluoro-1,2,3,5,6,7-hexahydro-s-indacen-4-yl)carbamoyl)-6,7-dihydro-5H-pyrazolo[5,1-b][1,3]oxazine-3-sulfonimidamide], the concentration for half-maximal inhibition (IC50) with PBMCs (Homo sapiens, PBMC) turned out to be 0.035 µM; on NLRP3 inflammasome [1] (setting [4]), 0.05 µM.
Consider `CC(C)c1cc(F)cc(C(C)C)c1NC(=O)NS(=N)(=O)c1cnn2c1OCCC2` (stereo not drawn) [drawing 655], for which the IC50 in the assay on PBMCs (Homo sapiens, PBMC) is below 0.1 µM; at NLRP3 inflammasome [1] (setting [5]), 0.1 to 1 µM.
As for `CC1(C)COc2c(S(N)(=O)=NC(=O)Nc3c4c(cc5c3CCC5)CCC4)cnn2C1` (racemic) [Example 6, N′-((1,2,3,5,6,7-hexahydro-s-indacen-4-yl)carbamoyl)-6,6-dimethyl-6,7-dihydro-5H-pyrazolo[5,1-b][1,3]oxazine-3-sulfonimidamide], the IC50 in the assay with PBMCs (Homo sapiens, PBMC) was 0.003 µM; at NLRP3 inflammasome [1] (setting [4]), 0.014 µM.
Turning to `NS(=O)(=NC(=O)Nc1c2c(c(F)c3c1CCC3)CCC2)c1cnn2c1OCCC2` (single isomer, unassigned) [Example 22], the figures for the IC50 with PBMCs (setting [3]), at NLRP3 inflammasome [1] (setting [4]) and at NLRP3 inflammasome [2] were 0.066 µM, 0.095 µM and 0.15 µM, respectively.
`COC1CN(C2COc3c(S(N)(=O)=NC(=O)Nc4c5c(cc6c4CCC6)CCC5)cnn3C2)C1` (single isomer, unassigned) [Example 39]: the IC50 in the assay with PBMCs (setting [3]) turned out to be 0.15 µM; on NLRP3 inflammasome [1] (setting [4]), 0.019 µM.
Regarding `CO[C@@H]1COc2c(S(=N)(=O)NC(=O)Nc3c4c(cc5c3CCC5)CCC4)cnn2C1` (stereo partly drawn) [drawing 650], the IC50 in the assay on PBMCs (setting [3]) and at NLRP3 inflammasome [1] (setting [5]) was below 0.1 µM throughout.
As for `NS(=O)(=NC(=O)Nc1c2c(cc3c1CCC3)CCC2)c1cnn(CC2CC2)c1` (racemic) [Example 10, 1-(cyclopropylmethyl)-N′-((1,2,3,5,6,7-hexahydro-s-indacen-4-yl)carbamoyl)-1H-pyrazole-4-sulfonimidamide], the concentration for half-maximal inhibition (IC50) with PBMCs (Homo sapiens, PBMC) was 0.36 µM; at NLRP3 inflammasome [1] (setting [4]), 0.35 µM.
Take `CC(C)c1cc(F)cc(C(C)C)c1NC(=O)NS(=N)(=O)c1cnn2c1OCCC2` (stereo not drawn) [drawing 656]: the IC50 is below 0.1 µM with PBMCs (setting [3]) and 0.1 to 1 µM on NLRP3 inflammasome [1] (setting [5]).
Consider `CN=S(=O)(NC(=O)Nc1c2c(cc3c1CCC3)CCC2)c1cnn2c1OCCC2` (stereo not drawn), for which the half-maximal inhibitory concentration (IC50) is above 10 µM in the assay with PBMCs (Homo sapiens, PBMC) and above 10 µM on NLRP3 inflammasome [1] (setting [5]).
`CC(C)c1cc(F)cc(C(C)C)c1NC(=O)N=S(N)(=O)c1cnn2c1OCCC2` (single isomer, unassigned) [Example 8]: the IC50 in the assay on PBMCs (setting [3]) came out at 0.002 µM; at NLRP3 inflammasome [1] (setting [4]) it was 1 µM; on NLRP3 inflammasome [2] it was 9.4 µM.
With `Cn1cc(S(N)(=O)=NC(=O)Nc2c3c(cc4c2CCC4)CCC3)cn1` (racemic) [Example 5, N′-((1,2,3,5,6,7-hexahydro-s-indacen-4-yl)carbamoyl)-1-methyl-1H-pyrazole-4-sulfonimidamide], the IC50 in the assay on PBMCs (Homo sapiens, PBMC) turned out to be 0.648 µM; on NLRP3 inflammasome [1] (setting [4]) it was 1.02 µM.
`CNC1COc2c(S(N)(=O)=NC(=O)Nc3c4c(cc5c3CCC5)CCC4)cnn2C1` (single isomer, unassigned) [Example 25]: the figures for the IC50 in the assay on PBMCs (setting [3]) and at NLRP3 inflammasome [1] (setting [4]) were 0.008 µM and 0.3 µM, respectively.
Turning to `CNC1COc2c(S(N)(=O)=NC(=O)Nc3c4c(c(F)c5c3CCC5)CCC4)cnn2C1` (single isomer, unassigned) [Example 41], the values for the IC50 with PBMCs (setting [3]), at NLRP3 inflammasome [1] (setting [4]) and on NLRP3 inflammasome [2] were 1.31 µM, 6.8 µM and 0.43 µM, respectively.
As for `CC(C)c1cc(F)cc(C(C)C)c1NC(=O)N=S(N)(=O)c1cnn2c1OCCC2` (racemic) [Example 3, N′-((4-fluoro-2,6-diisopropylphenyl)carbamoyl)-6,7-dihydro-5H-pyrazolo[5,1-b][1,3]oxazine-3-sulfonimidamide], the IC50 in the assay on PBMCs (Homo sapiens, PBMC) was 0.176 µM; on NLRP3 inflammasome [1] (setting [4]), 0.41 µM.
On to `CO[C@@H]1COc2c(S(N)(=O)=NC(=O)Nc3c4c(cc5c3CCC5)CCC4)cnn2C1` (mixture of isomers) [Example 2, (6S)—N′-((1,2,3,5,6,7-hexahydro-s-indacen-4-yl)carbamoyl)-6-methoxy-6,7-dihydro-5H-pyrazolo[5,1-b][1,3]oxazine-3-sulfonimidamide], for which the IC50 with PBMCs (Homo sapiens, PBMC) is 0.1 µM; at NLRP3 inflammasome [1] (setting [4]), 0.024 µM.
For `N=S(=O)(NC(=O)Nc1c2c(cc3c1CCC3)CCC2)c1cnn(CC2CC2)c1` (stereo not drawn), the IC50 in the assay with PBMCs (Homo sapiens, PBMC) was 0.1 to 1 µM; at NLRP3 inflammasome [1] (setting [5]), 0.1 to 1 µM.
`CNS(=O)(=NC(=O)Nc1c2c(cc3c1CCC3)CCC2)c1cnn2c1OCCC2` (racemic) [Example 9, N′-((1,2,3,5,6,7-hexahydro-s-indacen-4-yl)carbamoyl)-N-methyl-6,7-dihydro-5H-pyrazolo[5,1-b][1,3]oxazine-3-sulfonimidamide]: the IC50 in the assay on PBMCs (Homo sapiens, PBMC) was above 10 µM; at NLRP3 inflammasome [1] (setting [4]) it was above 10 µM.
Regarding `CC1(C)COc2c(S(N)(=O)=NC(=O)Nc3c4c(cc5c3CCC5)CCC4)cnn2C1` (stereo not drawn), the IC50 is below 0.1 µM in the assay with PBMCs (Homo sapiens, PBMC) and below 0.1 µM on NLRP3 inflammasome [1] (setting [5]).
